Here are results for six molecules from paper PMC7616177, “From structure to clinic: Design of a muscarinic M1 receptor agonist with the potential to treat Alzheimer’s disease” (Cell, 2021).

Where two headings read alike, the source gives them in different places. Where only a bound is given, the exact number is not on record here.

The target in assay [1] is T1, M2-receptor (Homo sapiens, UniProt P08172).
T1 sequence (P08172 1-466): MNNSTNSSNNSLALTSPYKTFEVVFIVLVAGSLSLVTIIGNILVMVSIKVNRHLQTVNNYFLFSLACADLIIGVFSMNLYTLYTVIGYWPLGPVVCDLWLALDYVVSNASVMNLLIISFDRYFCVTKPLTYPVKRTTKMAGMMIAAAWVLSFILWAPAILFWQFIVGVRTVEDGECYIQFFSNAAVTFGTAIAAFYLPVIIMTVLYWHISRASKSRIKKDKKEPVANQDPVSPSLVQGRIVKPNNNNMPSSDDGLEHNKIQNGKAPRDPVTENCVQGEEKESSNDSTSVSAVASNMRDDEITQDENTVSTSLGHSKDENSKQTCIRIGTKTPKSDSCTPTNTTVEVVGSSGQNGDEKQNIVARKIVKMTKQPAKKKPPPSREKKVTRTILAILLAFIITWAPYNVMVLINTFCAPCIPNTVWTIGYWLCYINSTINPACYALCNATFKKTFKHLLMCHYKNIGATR
As to the kind of experiment: M2-receptor functional agonist assay. Format: cell-based. Details: expressed in transfected cells. The procedure:
(§1) Functional assays were performed using the Alphascreen Surefire phopho-ERK1/2 assay. […] Once adhered, cells were serum starved overnight. Agonist stimulation was performed by the addition of […] agonist to the cells for a pre-optimized 5 min period (37°C). Media was removed and 50 μl of lysis buffer added. After 15 min a 4 μl sample was transferred to a 384-well plate and 7 μl of detection mixture added.

Assay [2] concerns the target T2, M3-receptor (Homo sapiens, UniProt P20309).
T2 construct: expressed in transfected cells
As to the kind of experiment: M3-receptor functional agonist assay. Format: cell-based. The procedure:
as §1

In assay [3] the target is T3, M4-receptor (Homo sapiens, UniProt P08173).
T3 sequence (P08173 1-479): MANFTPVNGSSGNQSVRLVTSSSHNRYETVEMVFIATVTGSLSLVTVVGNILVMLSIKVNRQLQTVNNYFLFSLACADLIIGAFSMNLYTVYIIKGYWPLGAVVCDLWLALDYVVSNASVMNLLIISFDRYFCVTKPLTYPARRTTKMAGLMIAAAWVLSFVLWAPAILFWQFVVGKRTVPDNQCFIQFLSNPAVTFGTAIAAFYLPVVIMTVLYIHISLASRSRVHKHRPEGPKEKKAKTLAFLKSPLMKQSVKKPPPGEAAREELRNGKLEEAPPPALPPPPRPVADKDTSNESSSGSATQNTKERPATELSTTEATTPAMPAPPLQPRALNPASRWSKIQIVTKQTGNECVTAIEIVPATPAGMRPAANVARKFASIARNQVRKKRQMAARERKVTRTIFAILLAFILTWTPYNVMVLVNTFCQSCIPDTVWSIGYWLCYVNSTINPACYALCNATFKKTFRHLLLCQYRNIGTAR
As to the kind of experiment: M4-receptor functional agonist assay. The arrangement: expressed in transfected cells. Format: cell-based. The settings on record: for EC50: read-out: M4-receptor EC50. How it is done:
as §1

Assay [4] has as its target T4, human M1 receptor (Homo sapiens, UniProt P11229).
T4 construct: expressed in transfected cells
T4 sequence (P11229 1-460): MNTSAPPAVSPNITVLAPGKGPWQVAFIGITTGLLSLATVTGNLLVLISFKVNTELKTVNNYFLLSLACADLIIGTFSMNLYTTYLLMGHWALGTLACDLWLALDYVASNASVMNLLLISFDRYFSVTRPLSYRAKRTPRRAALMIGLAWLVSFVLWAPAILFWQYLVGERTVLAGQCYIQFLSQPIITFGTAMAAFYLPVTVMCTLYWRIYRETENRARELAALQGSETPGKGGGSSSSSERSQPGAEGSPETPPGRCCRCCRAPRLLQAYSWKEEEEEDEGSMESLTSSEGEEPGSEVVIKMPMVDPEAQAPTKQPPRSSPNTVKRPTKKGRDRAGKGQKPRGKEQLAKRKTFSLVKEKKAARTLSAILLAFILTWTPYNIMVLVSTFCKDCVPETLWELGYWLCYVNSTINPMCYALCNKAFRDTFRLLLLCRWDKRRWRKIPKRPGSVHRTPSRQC
Briefly: M1-receptor functional agonist assays (pERK1/2 and calcium mobilisation) for hits and SAR. The format is cell-based.

The subject of assay [5] is Wistar rats. As to the kind of experiment: Scopolamine-induced amnesia in passive avoidance. Format: in vivo, rat. The settings on record: rat passive avoidance, donepezil 0.01 mg/kg. The procedure: Male adult Wistar rats (Harlan, UK; approximately 11 weeks of age) were acclimatised to the experimental rooms for three days (study days 1-3) and handled for a further two days (study days 4 and 5) prior to the experiment.
Donepezil (0.01 and 0.1 mg/kg) was administered via intraperitoneal injection (in saline) 60 min prior to training. Rats were trained in a single-trial, step-through, light-dark passive avoidance paradigm. The training apparatus consisted of a chamber 300 mm in length, 260 mm wide, and 270 mm in height. The front and top were transparent, allowing the experimenter to observe the behavior of the animal inside the apparatus. The chamber was divided into two compartments, separated by a central shutter that contained a small opening (50 mm wide and 75 mm high) set close to the front of the chamber. The smaller of the compartments measured 90 mm in width and contained a low-light (~200 lux) illumination source. The larger compartment measured 210 mm in width and was not illuminated. The floor of this dark compartment consisted of a grid of 16 horizontal stainless-steel bars that were 5 mm in diameter and spaced 12.5 mm apart. A current generator supplied 0.75 mA to the grid floor, which was scrambled once every 0.5 s across the 16 bars.
Animals were placed facing the rear of the light compartment of the apparatus, immediately after which, spontaneous behavior was assessed. The timer was started once the animal completely turned to face the front of the chamber. Latency to enter the dark chamber was recorded, and having completely entered the dark compartment foot shock was administered to the animal, which immediately returned to the light compartment. Animals were then returned to their home cages. Between each training session, both compartments of the chamber were cleaned to remove any confounding olfactory cues. Vehicle (saline) or scopolamine (1 mg/kg) was administered to rats 6 hours after training. Recall of the inhibitory stimulus was evaluated 24 hour post-training on study day 7, by returning the animal into the light chamber and recording their latency to enter the dark chamber, a criterion time of 600 s was employed. Observation of the animals was made by overhead video camera linked to a monitor behind a screened area. Animal treatment was blinded to the observer.

The mark [6] stands for this setting: SAR, Table S4, read-out: M1-receptor agonist activity EC50.

T2 sequence (P20309 whole entry): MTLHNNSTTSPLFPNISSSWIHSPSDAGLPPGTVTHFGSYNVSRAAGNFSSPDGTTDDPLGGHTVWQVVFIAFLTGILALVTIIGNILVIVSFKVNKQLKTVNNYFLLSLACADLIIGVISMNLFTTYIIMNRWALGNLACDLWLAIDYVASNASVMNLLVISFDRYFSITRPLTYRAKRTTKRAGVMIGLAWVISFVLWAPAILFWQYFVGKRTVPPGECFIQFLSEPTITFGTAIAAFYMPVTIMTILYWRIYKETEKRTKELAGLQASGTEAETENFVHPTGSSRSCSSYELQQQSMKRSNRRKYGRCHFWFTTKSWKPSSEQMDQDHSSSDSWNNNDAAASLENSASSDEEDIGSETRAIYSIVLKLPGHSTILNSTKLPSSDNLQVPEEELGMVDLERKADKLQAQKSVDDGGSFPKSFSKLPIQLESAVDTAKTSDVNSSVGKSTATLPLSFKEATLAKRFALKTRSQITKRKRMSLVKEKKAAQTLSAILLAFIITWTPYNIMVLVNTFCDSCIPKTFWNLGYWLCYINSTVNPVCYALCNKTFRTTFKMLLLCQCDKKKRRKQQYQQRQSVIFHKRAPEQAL

Turning to `CCOC(=O)N1CCC[C@@H](N2CCC(C(=O)NC3(C)CCC3)CC2)CC1` [(R)-Compound 7], the EC50 (commonly the concentration needed to bring the measured effect to its halfway point) in assay [1] (read-out: M2-receptor EC50) was above 20000 nM; in assay [2] (read-out: M3-receptor EC50), above 20000 nM; in assay [3] it was 2500 nM; in assay [4] (setting [6]) it was 398 nM.
Regarding `CCOC(=O)N1CCC(N2CCC(C(N)=O)CC2)CC1` [Compound 4], the concentration for a half-maximal effect (EC50) in assay [4] (fragment hit, read-out: EC50 at the M1-receptor) stood at 3500 nM.
For the molecule `CCOC(=O)N1CCC(N2CCC(C(=O)NCC(C)C)CC2)CC1` [Compound 5], the M2-receptor agonist activity entry in assay [1] is “weak”. In addition, the M4-receptor agonist activity entry in assay [3] is “weak”. The EC50 in assay [4] (setting [6]) came out at 316 nM.
Turning to `CCOC(=O)N1CCCC(N2CCC(C(=O)NCC(C)C)CC2)CC1` (stereo not drawn) [Compound 6], in assay [1], the M2-receptor agonist activity entry is recorded as “no detectable agonist activity”. In addition, the M3-receptor agonist activity result in assay [2] is “no detectable agonist activity”. For the same molecule, the “Lower potency at M4-receptors relative to M1” value in assay [3] (M4 vs M1) is “ten-fold”. The EC50 was 794 nM in assay [3] and 79 nM in assay [4] (calcium assays, read-out: Potency at the M1-receptor in calcium assays EC50).
Consider `Cc1cc(F)c2[nH]c(=O)n(C3CCN(C4CCOCC4)CC3)c2c1` [GSK1034702, reference compound], for which the M2-receptor agonist activity result in assay [1] is “significant M2-receptor agonist activity”.
Turning to `COc1cc2c(cc1OC)C(=O)C(CC1CCN(Cc3ccccc3)CC1)C2` (stereo not drawn) [donepezil, reference compound], the Response alone entry in assay [5] was “inactive”.
